Assay results reported in patent publication US7858588B2, “Immunostimulatory oligodeoxynucleic molecules” (Intercell AG, priority 2001, dated 2010).
Entries after “also recorded” stand apart in the source; their conditions may differ.

Tests used:
Type in all cases: in vivo, Mice C57BI/6
[1] = tested on: melanoma-derived peptide TRP-2181-188 (TRP-2181-188-specific T cells); assay: IFN-γ ELISPOT on draining lymph node cells after footpad injection of TRP-2181-188 peptide with ODN; details: for TRP-2181-188-specific immune response (IFN-γ-producing cells), FIG. 7-9 / TRP-2181-188-specific immune response (number of IFN-γ-producing cells/1×10^6 lymph node cells): ODN 5 nmol/mouse + TRP-2181-188 100 μg/mouse; for TRP-2181-188-specific immune response (IFN-γ-producing cells), FIG. 7-9: groups with and without pR 60, 4 days; for TRP-2181-188-specific immune response (number of IFN-γ-producing cells/1×10^6 lymph node cells) with co-injection of poly-L-arginine: ODN 5 nmol/mouse + TRP-2181-188 100 μg/mouse + pR60 100 μg/mouse; for TRP-2181-188-specific immune response (number of IFN-γ-producing cells/1×10^6 lymph node cells) with co-injection of poly-L-arginine / TRP-2181-188-specific immune response (number of IFN-γ-producing cells/1×10^6 lymph node cells): hind footpads; for TRP-2181-188-specific immune response (number of IFN-γ-producing cells/1×10^6 lymph node cells): no poly-L-arginine, lymph nodes 4 days later
Method: (§1) Animals were sacrificed 4 days after injection and popliteal lymph nodes were harvested. Lymph nodes were passed through a 70 μm cell strainer and washed twice with DMEM medium (GIBCO BRL) containing 5% fetal calf serum (FCS, SIGMA chemicals). Cells were adjusted to the appropriate cell number in DMEM/5%/FCS. An IFN-γ ELISPOT assay was carried out in triplicates as described (Miyahira et al., 1995). This method is a widely used procedure allowing the quantification of antigen-specific T cells. Lymphocytes were stimulated ex vivo in triplicates with medium (background-control), TRP-2181-188-peptide, an irrelevant peptide OVA257-264, pR 60, U-ODN13 and Concanavalin A (Con A). Spots representing single IFN-γ producing T cells were counted and the number of background spots was substracted from all samples. The high number of spots detected after the stimulation with Con A (data not shown) indicates a good condition of the used lymphocytes. For each experimental group of mice the number of IFN-γ-producing cells/1×10^6 cells are illustrated in FIG. 1, the standard deviation of ex vivo-stimulated triplicates is given.
as §1, with “U-ODN15” for “U-ODN13”, “5,” for “1,”
as §1, with “U-ODN 16, ODN 20” for “pR 60, U-ODN13”, “6,” for “1,”
Animals were sacrificed 4 days after injection and popliteal lymph nodes were harvested. Lymph nodes were passed through a 70 μm cell strainer and washed twice with DMEM medium (GIBCO BRL) containing 5% fetal calf serum (FCS, SIGMA chemicals). Cells were adjusted to the appropriate cell number in DMEM/5%/FCS. An IFN-γ ELISPOT assay was carried out in triplicates as described (Miyahira et al., 1995). This method is a widely used procedure allowing the quantification of antigen-specific T cells. […]

[2] = tested on: ovalbumin-derived peptide OVA257-264; assay: IFN-γ ELISPOT on draining lymph node cells after footpad injection of OVA257-264 peptide with ODN; details: ODN 5 nmol/mouse + OVA257-264 300 μg/mouse, no pR60, 4 days
Method: as §1, with “duplicates” for “triplicates”, “OVA257-264 peptide,” for “TRP-2181-188-peptide,”, “TRP-2181-188,” for “OVA257-264,”, “3,” for “1,”

[3] = tested on: mouse mastocytoma-derived peptide P1A35-43; assay: IFN-γ ELISPOT on draining lymph node cells after footpad injection of P1A35-43 peptide with ODN
Method: as §1, with “P1A35-43 peptide,” for “TRP-2181-188-peptide,”, “CSP (SYVPSAEQI, SEQ ID NO:18),” for “OVA257-264,”, “U-ODN 13” for “U-ODN13”, “spots/1×10^6” for “IFN-γ-producing cells/1×10^6”, “4,” for “1,”

Q: With “uiu iui uiu iui uiu iui uiu iui ug [U-ODN 22]” as the substance, how does the “TRP-2181-188-specific immune response (IFN-γ-producing cells), FIG. 7-9” value (from here on “TRP-2181-188-specific immune response … FIG. 7-9”) [1] read?
A: generation of specific immune responses

Q: “tcc atg acu ttc ctg atg ct [U-ODN 13] (TCCATGACUTTCCTGATGCT; chemistry not given here)” was tested. Which “TRP-2181-188-specific immune response (number of IFN-γ-producing cells/1×10^6 lymph node cells) with co-injection of poly-L-arginine” value ([1]; 4 days) did it give?
A: strong immune response; also recorded: does not influence this strong response

Q: And the “TRP-2181-188-specific immune response (number of IFN-γ-producing cells/1×10^6 lymph node cells)” value [1]?
A: strong immune response; also recorded: strongly enhances

Q: And the “TRP-2181-188-specific T cells / immune response compared to CpG-ODN 1668” value ([1]; ODN 5 nmol/mouse vs CpG 1668 5 nmol/mouse, each with TRP-2181-188, 4 days)?
A: higher number

Q: And the “OVA257-264-specific immune response (IFN-γ-producing cells/1×10^6 lymph node cells)” value [2]?
A: induces an immune response

Q: What about the “P1A35-43-specific immune response with co-injection of poly-L-arginine” value ([3]; ODN 5 nmol/mouse + P1A35-43 100 μg/mouse + pR60 100 μg/mouse, 4 days) of the same substance?
A: further enhanced

Q: What about the “P1A35-43-specific immune response (IFN-γ-producing cells/1×10^6 lymph node cells)” value ([3]; ODN 5 nmol/mouse + P1A35-43 100 μg/mouse, no pR60, 4 days) of the same substance?
A: strong immune response

Q: For hhh wdu dhh h [U-ODN 16], which “TRP-2181-188-specific immune response (IFN-γ-producing cells), 10mer cocktail” value ([1]; ODN 10 nmol/mouse + TRP-2181-188 100 μg/mouse, no pR60, compared to peptide alone or with ODN 20, 4 days) is on record?
A: strong immune response

Q: How did the “TRP-2181-188-specific immune response … FIG. 7-9” value [1] turn out when “uuu uuu uuu uuu uuu uuu uuu uuu ut (UUUUUUUUUUUUUUUUUUUUUUUUUT; DNA, all phosphorothioate, T or U not given here) [U-ODN 24]” was run?
A: generation of specific immune responses

Q: Which “TRP-2181-188-specific immune response (number of IFN-γ-producing cells/1×10^6 lymph node cells) with co-injection of poly-L-arginine” value ([1]; 4 days) does the source give for “tcc atg acu ttc ctg atg ct [U-ODN 13b] (DNA TCCATGACUTTCCTGCTGATGCT; DNA, backbone and methylation of C not given here; further chemistry not fully specified)” here?
A: only after co-injection of poly-L-arginine a strong peptide-specific immune response is induced; also recorded: only upon co-injection of poly-L-arginine a high immune response was induced

Q: How did the “TRP-2181-188-specific immune response … FIG. 7-9” value [1] turn out when “uau aua uau aua uau aua uau aua ua (UAUAUAUAUAUAUAUAUAUAUAUAUA; DNA, all phosphorothioate, T or U not given here) [U-ODN 21]” was run?
A: generation of specific immune responses

Q: Which results are given for nhh hhh wdu dhh hhh hhh wn [U-ODN 15]?
A: TRP-2181-188-specific immune response (IFN-γ-producing cells) at 10 times less ODN ([1]; ODN 0.5 nmol/mouse + TRP-2181-188 100 μg/mouse, 4 days): strong immune response could be induced; TRP-2181-188-specific immune response (number of IFN-γ-producing cells/1×10^6 lymph node cells) with co-injection of poly-L-arginine ([1]; 4 days): does not influence this strong response; also recorded: strong immune response; TRP-2181-188-specific immune response (number of IFN-γ-producing cells/1×10^6 lymph node cells) [1]: strongly enhances; also recorded: strong immune response
